Values quoted from earlier work in patent US20220168408A1, “MULTI-VALENT IMMUNOTHERAPY COMPOSITION AND METHODS OF USE FOR TREATING WT1-POSITIVE CANCERS” (SLSG LIMITED LLC, priority 2019, published 2022).

System: CD4+ and CD8+ responses
Details: according to data from preclinical and phase 1 studies

## SGQAYMFPNAPYLPSCLES (Mutated Homo sapiens) [WT1-122A1 long]
  stimulation of CD4+ and CD8+ responses: stimulate both CD4+ and CD8+ responses
